The values below come from PubChem BioAssay (NCI).

Molecules are shown by their SMILES.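 Briefly, cells in 96-well plates were exposed to five compound concentrations for 48 h, and endpoints were estimated by linear interpolation. At the GI50, growth is halved. TGI: concentration producing complete growth inhibition.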

The first assay concerns T-47D breast. Nature of the assay: inhibition of tumour cell growth, NCI panel, 48 h.
`N#CC(C#N)=CNC(N)=S`: the TGI is above 100 µM.
`CC1(C)C2CCC(=O)C1CC2` (stereo not given): the TGI was above 100 µM.
With `ClCc1cccc(Cn2cnc3ncnc(Cl)c32)c1`, the GI50 was 0.212 µM and the TGI turned out to be 0.497 µM.
As to `OCC#Cc1ccccc1C#Cc1ccccc1`, the GI50 is 18.1 µM and the TGI was found to be 37.6 µM.
The like results for `COc1ccc(-c2nnc(COc3ccc(C(=O)/C=C/c4ccco4)cc3)o2)cc1` were, in that order, 2.91 µM and 10.8 µM.
As to `Cc1ccccc1S(=O)(=O)OC1NS(=O)(=O)c2ccccc21` (stereo not given), the TGI was above 100 µM.
As to `O=C(/C=C/c1ccncc1)c1cc(Cl)ccc1O`, the GI50 is 18.8 µM and the TGI turned out to be 53.1 µM.
As to `COc1cc2c3c(n(C)c(=O)c2cc1OC)-c1cc2c(cc1/C3=C\CCCN)OCO2`, the GI50 is 10.9 µM and the TGI is above 100 µM.
Consider `Cc1ccc(S(=O)(=O)Nc2ccccc2C(=O)c2ccc(C)c(C)c2)cc1`, for which the TGI was above 100 µM.
As for `COc1ccc(-c2nnc(COc3ccc(NC(=O)Nc4cc(C(F)(F)F)cc(C(F)(F)F)c4)cc3F)o2)cc1`, the GI50 is 2.62 µM and the TGI was 6.94 µM.

In the next assay the test system is HL-60(TB) leukemia. As to the kind of experiment: inhibition of tumour cell growth, NCI panel, 48 h.
`CN(C(=O)c1ccc(C(F)(F)F)cc1)c1ccc(Oc2ccc3c(c2)cc(C(=O)N2CCN(Cc4ccc(OC(F)F)cc4)CC2)n3C)nc1`: the GI50 is below 0.012 µM and the TGI is above 100 µM.
Turning to `Nc1ncnc2c1nnn2C1OC(CO)C(O)C1O` (stereo not given), the TGI is 2.16 µM.
Turning to `COc1cc(/C=C2\CN(S(=O)(=O)c3ccccc3)C/C(=C\c3cc(CN4CCCC4)c(O)c(OC)c3)C2=O)cc(CN2CCCC2)c1O`, the GI50 was 0.513 µM and the TGI was 2.73 µM.
Taken in the same sequence, the figures for `CN1CCN(CCCn2c(=O)c3sc4ncccc4c3n3nnc(-c4ccccc4)c23)CC1` were 0.795 µM and 1.73 µM.
With `NC1(C(=O)OCc2ccccc2)CCCC1`, the TGI came out at 54.5 µM.
Turning to `O=C(/C=C/c1ccc(Cl)cc1)c1ccc(Nc2ccnc3cc(Cl)ccc23)cc1`, the GI50 is 9.16 µM and the TGI stood at 59.6 µM.
As for `CCCCCCCC(=O)SCC/C=C/[C@@H]1CC(=O)NCc2cc(ccn2)C2=N[C@@](C)(CS2)C(=O)N[C@@H](C(C)C)C(=O)O1`, the GI50 is 0.0242 µM and the TGI was above 33.3 µM.
In turn, `CSc1nc(NC2OCC(OC(C)=O)C(OC(C)=O)C2OC(C)=O)c(N=CC=Nc2c(NC3OCC(OC(C)=O)C(OC(C)=O)C3OC(C)=O)nc(SC)[nH]c2=O)c(=O)[nH]1` (stereo not given) gave a TGI above 100 µM.
On the same count and under the same terms, for `N#CC(C#N)=CNC(N)=S` the value was above 100 µM; for `CC1(C)C2CCC(=O)C1CC2` (stereo not given), above 100 µM.
As for `COc1ccc(-c2nnc(COc3ccc(C(=O)/C=C/c4ccco4)cc3)o2)cc1`, the GI50 is 2.65 µM and the TGI came to 7.38 µM.
The like results for `COc1ccc(-c2nnc(COc3ccc(NC(=O)Nc4cc(C(F)(F)F)cc(C(F)(F)F)c4)cc3F)o2)cc1` were, in that order, 2.34 µM and 6.02 µM.
The compound `C[Si](C)(C)C1(Sc2ccccc2)SCCCS1` yielded a TGI of 33.3 µM.
As for `O=c1cc(-c2ccccc2)oc2cc(OCCCOc3ccc4c(=O)cc(-c5ccccc5)oc4c3)ccc12`, the TGI is above 100 µM.

A further assay has as its system EKVX NSCLC. Nature of the assay: inhibition of tumour cell growth, NCI panel, 48 h.
For the compound `CN(C(=O)c1ccc(C(F)(F)F)cc1)c1ccc(Oc2ccc3c(c2)cc(C(=O)N2CCN(Cc4ccc(OC(F)F)cc4)CC2)n3C)nc1`, the GI50 was below 0.01 µM and the TGI is above 100 µM.
`Nc1ncnc2c1nnn2C1OC(CO)C(O)C1O` (stereo not given) came in with a TGI of 27.5 µM.
Take `COc1cc(/C=C2\CN(S(=O)(=O)c3ccccc3)C/C(=C\c3cc(CN4CCCC4)c(O)c(OC)c3)C2=O)cc(CN2CCCC2)c1O`: the GI50 is 1.14 µM and the TGI is 3.53 µM.
Consider `CN1CCN(CCCn2c(=O)c3sc4ncccc4c3n3nnc(-c4ccccc4)c23)CC1`, for which the GI50 was 6.47 µM and the TGI came out at 13.3 µM.
In turn, `NC1(C(=O)OCc2ccccc2)CCCC1` yielded a TGI of 59.3 µM.
`O=C(/C=C/c1ccc(Cl)cc1)c1ccc(Nc2ccnc3cc(Cl)ccc23)cc1`: the GI50 was above 84.6 µM and the TGI was above 100 µM.
As for `CCCCCCCC(=O)SCC/C=C/[C@@H]1CC(=O)NCc2cc(ccn2)C2=N[C@@](C)(CS2)C(=O)N[C@@H](C(C)C)C(=O)O1`, the GI50 was 0.0376 µM and the TGI is above 33.3 µM.
`CSc1nc(NC2OCC(OC(C)=O)C(OC(C)=O)C2OC(C)=O)c(N=CC=Nc2c(NC3OCC(OC(C)=O)C(OC(C)=O)C3OC(C)=O)nc(SC)[nH]c2=O)c(=O)[nH]1` (stereo not given): the TGI was above 100 µM.
Consider `N#CC(C#N)=CNC(N)=S`, for which the TGI was above 100 µM.
As to `ClCc1cccc(Cn2cnc3ncnc(Cl)c32)c1`, the GI50 is 13.7 µM and the TGI came out at 29.7 µM.
Taken in the same sequence, the figures for `OCC#Cc1ccccc1C#Cc1ccccc1` were 17.6 µM and 34 µM.
In turn, `Cc1ccccc1S(=O)(=O)OC1NS(=O)(=O)c2ccccc21` (stereo not given) came in with a TGI above 100 µM.
Regarding `O=C(/C=C/c1ccncc1)c1cc(Cl)ccc1O`, the GI50 was 17.2 µM and the TGI was 54.5 µM.
The like results for `COc1cc2c3c(n(C)c(=O)c2cc1OC)-c1cc2c(cc1/C3=C\CCCN)OCO2` were, in that order, 17.7 µM and above 100 µM.
On to `Cc1ccc(S(=O)(=O)Nc2ccccc2C(=O)c2ccc(C)c(C)c2)cc1`, for which the TGI is above 100 µM.
Same read-out and setting: for `C[Si](C)(C)C1(Sc2ccccc2)SCCCS1` the value was above 100 µM; for `O=c1cc(-c2ccccc2)oc2cc(OCCCOc3ccc4c(=O)cc(-c5ccccc5)oc4c3)ccc12`, above 100 µM.

For the next assay, the system named is SF-295 CNS. Nature of the assay: inhibition of tumour cell growth, NCI panel, 48 h.
For the compound `CN(C(=O)c1ccc(C(F)(F)F)cc1)c1ccc(Oc2ccc3c(c2)cc(C(=O)N2CCN(Cc4ccc(OC(F)F)cc4)CC2)n3C)nc1`, the GI50 was below 0.01 µM and the TGI is above 100 µM.
In turn, `Nc1ncnc2c1nnn2C1OC(CO)C(O)C1O` (stereo not given) had a TGI of 7.59 µM.
Regarding `COc1cc(/C=C2\CN(S(=O)(=O)c3ccccc3)C/C(=C\c3cc(CN4CCCC4)c(O)c(OC)c3)C2=O)cc(CN2CCCC2)c1O`, the GI50 is 1.55 µM and the TGI is 3.64 µM.
In the case of `CN1CCN(CCCn2c(=O)c3sc4ncccc4c3n3nnc(-c4ccccc4)c23)CC1`, the GI50 was 5.63 µM and the TGI amounted to 12.4 µM.
